Experimental data as given in US12161115B2, “Herbicidal compounds” (SYNGENTA CROP PROTECTION AG, priority 2019, dated 2024).

Experiments:
Format in all cases: in vivo
[1] = system: Alopecurus myosuroides (ALOMY); test: Pre-emergence herbicidal glasshouse test; settings: 250 g/Ha, evaluated after 13 days
Protocol: (§1) Seeds of a variety of test species are sown in standard soil in pots (Lolium perenne (LOLPE), Setaria faberi (SETFA), Alopecurus myosuroides (ALOMY), Echinochloa crus-galli (ECHCG), Avena fatua (AVEFA)). After cultivation for one day (pre-emergence) or after 8 days cultivation (post-emergence) under controlled conditions in a glasshouse (at 24/16° C., day/night; 14 hours light; 65% humidity), the plants are sprayed with an aqueous spray solution derived from the formulation of the technical active ingredient in acetone/water (50:50) solution containing 0.5% Tween 20 (polyoxyethelyene sorbitan monolaurate, CAS RN 9005-64-5). Compounds are applied at 250 g/h. The test plants are then grown in a glasshouse under controlled conditions in a glasshouse (at 24/16° C., day/night; 14 hours light; 65% humidity) and watered twice daily. After 13 days for pre and post-emergence, the test is evaluated for the percentage damage caused to the plant. The biological activities are shown in the following table on a five point scale (5=80-100%; 4=60-79%; 3=40-59%; 2=20-39%; 1=0-19%). NT=not tested.

Avena fatua (AVEFA) [2] = test: Pre-emergence herbicidal glasshouse test; settings: 250 g/Ha, evaluated after 13 days
Protocol: as §1

[3] = system: Echinochloa crus-galli (ECHCG); test: Pre-emergence herbicidal glasshouse test; settings: 250 g/Ha, evaluated after 13 days
Protocol: as §1

Lolium perenne (LOLPE) [4] = test: Pre-emergence herbicidal glasshouse test; settings: 250 g/Ha, evaluated after 13 days
Protocol: as §1

Setaria faberi (SETFA) [5] = test: Pre-emergence herbicidal glasshouse test; settings: 250 g/Ha, evaluated after 13 days
Protocol: as §1

[6] = system: Alopecurus myosuroides (ALOMY); test: Post-emergence herbicidal glasshouse test; settings: 250 g/Ha, evaluated after 13 days
Protocol: as §1

Avena fatua (AVEFA) [7] = test: Post-emergence herbicidal glasshouse test; settings: 250 g/Ha, evaluated after 13 days
Protocol: as §1

[8] = system: Echinochloa crus-galli (ECHCG); test: Post-emergence herbicidal glasshouse test; settings: 250 g/Ha, evaluated after 13 days
Protocol: as §1

Lolium perenne (LOLPE) [9] = test: Post-emergence herbicidal glasshouse test; settings: 250 g/Ha, evaluated after 13 days
Protocol: as §1

Setaria faberi (SETFA) [10] = test: Post-emergence herbicidal glasshouse test; settings: 250 g/Ha, evaluated after 13 days
Protocol: as §1

barley crop plants = test: Crop phytotoxicity comparison, post-emergence; settings: post-emergence
Protocol: as §1
(§2) Using procedures outlines above, wheat and barley crop plants are treated, post-emergence with compounds A1, A3 or A8 of the present invention or comparator compound C1 (Compound A-38 from WO2014/096289) at the application rates indicated. The compounds were also applied in conjunction with the safener compound cloquintocet-mexyl (CQC) at 50 g/ha.

wheat crop plants = test: Crop phytotoxicity comparison, post-emergence; settings: post-emergence
Protocol: as §1, §2

`CC#Cc1cc(C)c(C2C(=O)CC3(CCN(C(=O)C(C)=NOC)CC3)CC2=O)c(C)c1` [Compound A1, 9-(2,6-dimethyl-4-prop-1-ynyl-phenyl)-3-(2-methoxyiminopropanoyl)-3-azaspiro[5.5]undecane-8,10-dione] was tested, and the “percentage damage caused to the plant, five point scale, ALOMY” value [1] was 5 (5=80-100%), the “percentage damage caused to the plant, five point scale, AVEFA” value (Avena fatua (AVEFA) [2]) was 5 (5=80-100%) and the “percentage damage caused to the plant, five point scale, ECHCG” value [3] was 5 (5=80-100%). For the same molecule, the “percentage damage caused to the plant, five point scale, LOLPE” value (Lolium perenne (LOLPE) [4]) was 5 (5=80-100%), the “percentage damage caused to the plant, five point scale, SETFA” value (Setaria faberi (SETFA) [5]) was 5 (5=80-100%) and the “percentage damage caused to the plant, five point scale, ALOMY” value [6] was 5 (5=80-100%). The “percentage damage caused to the plant, five point scale, AVEFA” value (Avena fatua (AVEFA) [7]) was 5 (5=80-100%), the “percentage damage caused to the plant, five point scale, ECHCG” value [8] was 5 (5=80-100%) and the “percentage damage caused to the plant, five point scale, LOLPE” value (Lolium perenne (LOLPE) [9]) was 5 (5=80-100%). The “percentage damage caused to the plant, five point scale, SETFA” value (Setaria faberi (SETFA) [10]) was 5 (5=80-100%), the “% phytotoxicity observed, Barley” value (barley crop plants; 30 g/ha) was 20% and the “% phytotoxicity observed, Barley” value (barley crop plants; 60 g/ha) was 40%. For the same molecule, the “damage to barley crop compared to prior art compound C1” value (barley crop plants; summary of Table B3) was “significantly less damaging”, the “% phytotoxicity observed, Wheat” value (wheat crop plants; 30 g/ha) was 10% and the “% phytotoxicity observed, Wheat” value (wheat crop plants; 60 g/ha) was 20%. The “% phytotoxicity observed, Wheat” value (wheat crop plants; 60 g/ha + safener cloquintocet-mexyl (CQC) at 50 g/ha) was 0% and the “damage to wheat crop compared to prior art compound C1” value (wheat crop plants; summary of Table B3) was “significantly less damaging”.
